This is an account of results in paper PMC4689619 (Organic & biomolecular chemistry, 2016).

Series [1] addresses oncogenic mutant K-Ras (mGFP-K-Ras G12V) (Homo sapiens, UniProt P01116, G12V). Type of series: cell-based, canine. The following applies: MDCK cells stably expressing mGFP-KRasG12V and mCherry-CAAX, 48 h; for IC50: read-out: IC50 (concentration needed for 50% PM mislocalisation).
Series [2] deals with SW620 Ad300 cells. The experiment in a line: cells. Type of series: cell-based, human.
Series [3] has as its system SW620 cells. Briefly: resazurin cell viability assay, SW620. Type of series: cell-based, human. Background: Resazurin is reduced to fluorescent resorufin, in cell work by metabolically active cells.
The target in series [4] is P-glycoprotein (P-gp) (Homo sapiens, UniProt P08183). The experiment in a line: calcein AM flow cytometry assay in P-gp over-expressing SW620 Ad300 cells. To be noted: 20 μM.
Setting [5] is: read-out: SW620 Ad300 IC50, P-gp over-expressing SW620 Ad300, resazurin.
[6] abbreviates: read-out: SW620 IC50, colon cancer cell line SW620, resazurin.

Like-named read-outs stand apart in the source and are kept apart here.

Chain of P-glycoprotein (P-gp) (P08183 whole entry): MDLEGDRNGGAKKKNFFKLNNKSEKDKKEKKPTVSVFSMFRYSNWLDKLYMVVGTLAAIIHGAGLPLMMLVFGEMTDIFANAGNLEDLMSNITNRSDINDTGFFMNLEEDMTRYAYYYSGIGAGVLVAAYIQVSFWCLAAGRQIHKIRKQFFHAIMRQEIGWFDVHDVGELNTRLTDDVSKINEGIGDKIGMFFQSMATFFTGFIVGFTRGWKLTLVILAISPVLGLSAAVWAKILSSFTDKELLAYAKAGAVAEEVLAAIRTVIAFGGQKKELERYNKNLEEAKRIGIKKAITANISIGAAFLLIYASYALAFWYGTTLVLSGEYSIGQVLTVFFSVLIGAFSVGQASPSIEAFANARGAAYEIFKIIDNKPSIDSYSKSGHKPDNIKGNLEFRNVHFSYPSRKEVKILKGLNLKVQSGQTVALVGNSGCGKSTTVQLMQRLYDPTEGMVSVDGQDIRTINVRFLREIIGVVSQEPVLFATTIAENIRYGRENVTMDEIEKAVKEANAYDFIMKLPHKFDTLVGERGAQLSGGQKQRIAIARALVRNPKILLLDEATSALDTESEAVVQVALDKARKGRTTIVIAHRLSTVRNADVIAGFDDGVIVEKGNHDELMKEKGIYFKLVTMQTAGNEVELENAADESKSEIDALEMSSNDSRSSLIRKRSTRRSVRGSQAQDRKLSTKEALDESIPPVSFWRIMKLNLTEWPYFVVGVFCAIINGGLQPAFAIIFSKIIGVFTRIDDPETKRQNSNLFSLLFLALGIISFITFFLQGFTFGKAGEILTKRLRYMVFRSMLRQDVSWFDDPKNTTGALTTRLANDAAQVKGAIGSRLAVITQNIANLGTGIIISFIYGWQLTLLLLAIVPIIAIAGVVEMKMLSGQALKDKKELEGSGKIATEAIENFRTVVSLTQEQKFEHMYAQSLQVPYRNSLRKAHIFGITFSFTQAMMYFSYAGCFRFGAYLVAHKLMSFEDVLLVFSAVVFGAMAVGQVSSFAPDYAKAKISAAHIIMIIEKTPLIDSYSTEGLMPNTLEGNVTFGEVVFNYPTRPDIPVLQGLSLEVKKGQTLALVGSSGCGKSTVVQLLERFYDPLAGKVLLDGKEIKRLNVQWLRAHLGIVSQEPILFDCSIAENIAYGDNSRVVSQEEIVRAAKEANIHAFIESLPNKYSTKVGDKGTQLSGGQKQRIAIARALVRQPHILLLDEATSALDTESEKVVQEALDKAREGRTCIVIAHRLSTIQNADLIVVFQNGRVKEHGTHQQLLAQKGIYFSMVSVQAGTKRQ

With `CC[C@H]1/C=C/C=C/C[C@@H](C)[C@H](O)[C@H](C)C(=O)[C@@H](C)[C@H](O)[C@@H](C)C(=O)[C@@H](C)[C@H](O)[C@@H](C)/C=C/C(=O)O[C@@H]2[C@H](C)[C@H](C[C@H]1O)O[C@]1(CC[C@H](C)[C@H](C[C@@H](C)O)O1)[C@H]2C` [compound 7, 21-hydroxy-oligomycin C], the “Emax (highest Manders coefficient, maximum extent of K-Ras PM mislocalisation)” value (“Emax” for short) in series [1] was 0.68 ± 0.01. Further, the figures for the IC50 in series [1], in series [2] (setting [5]) and in series [3] (setting [6]) were 0.0141 ± 0.00024 µM, 3.1 ± 0.2 µM and 5.7 ± 0.9 µM, respectively. For the same compound, the “FR (fold resistance, ratio IC50 SW620Ad300 / IC50 SW620)” value in series [2] is on record as 0.54.
Turning to `CC[C@H]1/C=C/C=C/C[C@@H](C)[C@H](O)[C@@](C)(O)C(=O)[C@@H](C)[C@H](O)[C@@H](C)C(=O)[C@@H](C)[C@H](O)[C@@H](C)/C=C/C(=O)O[C@@H]2[C@H](C)[C@H](CC1)O[C@@]1(O[C@@H](C[C@@H](C)O)[C@@H](C)CC1=O)[C@H]2C` [compound 2, oligomycin B], the “Emax” value in series [1] was determined as 0.67 ± 0.02. Further, the figures for the IC50 in series [1], in series [2] (setting [5]) and in series [3] (setting [6]) were 0.00351 ± 0.00016 µM, 12.9 ± 1.3 µM and 17 ± 0.6 µM, respectively. In series [2], the “FR (fold resistance, ratio IC50 SW620Ad300 / IC50 SW620)” value stood at 0.76.
As for `CC[C@H]1/C=C/C=C/C[C@@H](C)[C@H](O)[C@@](C)(O)C(=O)[C@@H](C)[C@H](O)[C@@H](C)C(=O)[C@@H](C)[C@H](O)[C@@H](C)/C=C/C(=O)O[C@@H]2[C@H](C)[C@H](C[C@H]1O)O[C@]1(CC[C@H](C)[C@H](C[C@@H](C)O)O1)[C@H]2C` [compound 6, 21-hydroxy-oligomycin A], in series [1], the “Emax” value worked out at 0.76 ± 0.04. Also, the results for the IC50 in series [1], in series [2] (setting [5]) and in series [3] (setting [6]) were 0.00482 ± 0.0007 µM, 11.8 ± 3.1 µM and 14.4 ± 0.6 µM, respectively. In series [2], the “FR (fold resistance, ratio IC50 SW620Ad300 / IC50 SW620)” value worked out at 0.82.
As for `CC[C@@H]1C=CC=CC[C@H](C)[C@@H](O)[C@@H](C)C(=O)[C@H](C)[C@@H](O)[C@H](C)C(=O)[C@H](C)[C@@H](O)[C@H](C)C=CC(=O)O[C@H]2[C@@H](C)[C@@H](CC1)O[C@@]1(CC[C@@H](C)[C@@H](C[C@H](C)O)O1)[C@@H]2C` [compound 3, oligomycin C], in series [1], the “Emax” value worked out at 0.72 ± 0.03. Further, the “FR (fold resistance, ratio IC50 SW620Ad300 / IC50 SW620)” value in series [2] was determined as 1.1. In addition, the IC50 in series [2] (Homo sapiens, SW620/AD300, read-out: SW620 Ad300 IC50) was found to be 22.5 ± 3.8 µM; in series [3] (Homo sapiens, SW-620, read-out: SW620 IC50), 19.8 ± 1.2 µM.
Turning to `COc1cccc2c1C(=O)c1c(O)c3c(c(O)c1C2=O)C[C@@](O)(C(=O)CO)C[C@@H]3O[C@H]1C[C@H](N)[C@H](O)[C@H](C)O1` [doxorubicin, reference compound], in series [2], the “FR (fold resistance, ratio IC50 SW620Ad300 / IC50 SW620)” value is given as 22. The “FR (fold resistance) with co-administration of verapamil” value in series [2] (co-administration of P-gp inhibitor verapamil) is 2.4.
Regarding `CC[C@H]1/C=C/C=C/C[C@@H](C)[C@H](O)[C@@](C)(O)C(=O)[C@@H](C)[C@H](O)[C@@H](C)C(=O)[C@@H](C)[C@H](O)[C@@H](C)/C=C/C(=O)O[C@@H]2[C@H](C)[C@H](CC1)O[C@@]1(O[C@@H](C[C@@H](C)O)[C@@H](C)CC1=O)[C@]2(C)O` [compound 5, oligomycin E], the “FAR (fluorescence arbitrary ratio), calcein fluorescence intensity vs PBS” value in series [4] is listed as 48.2. Further, in series [1], the “Emax” value is 0.73 ± 0.06. Also, the IC50 was 0.0049 ± 0.00064 µM in series [1], 4 ± 0.8 µM in series [2] (setting [5]) and 7.1 ± 0.4 µM in series [3] (setting [6]). Also, the “FR (fold resistance, ratio IC50 SW620Ad300 / IC50 SW620)” value in series [2] is 0.56.
As to oligomycin A [compound 1], in series [1], the “Emax” value is recorded as 0.75 ± 0.02. The “FR (fold resistance, ratio IC50 SW620Ad300 / IC50 SW620)” value in series [2] worked out at 0.27. For the same compound, the IC50 in series [2] (setting [5]) stood at 4 ± 1.1 µM; in series [3] (setting [6]), 14.6 ± 2.5 µM.
For `CC[C@H]1/C=C/C=C/C[C@@H](CO)[C@H](O)[C@@](C)(O)C(=O)[C@@H](C)[C@H](O)[C@@H](C)C(=O)[C@@H](C)[C@H](O)[C@@H](C)/C=C/C(=O)O[C@@H]2[C@H](C)[C@H](CC1)O[C@@]1(O[C@@H](C[C@@H](C)O)[C@@H](C)CC1=O)[C@H]2C` [compound 8, 40-hydroxy-oligomycin B], the “Emax” value in series [1] turned out to be 0.73 ± 0.05. The results for the IC50 in series [1], in series [2] (setting [5]) and in series [3] (setting [6]) were 0.00591 ± 0.00162 µM, 16.4 ± 1.5 µM and 13.6 ± 0.4 µM, respectively. In series [2], the “FR (fold resistance, ratio IC50 SW620Ad300 / IC50 SW620)” value was found to be 1.2.
Take `CC[C@H]1/C=C/C=C/C[C@@H](C)[C@H](O)[C@@](C)(O)C(=O)[C@@H](C)[C@H](O)[C@@H](C)C(=O)[C@@H](C)[C@H](O)[C@@H](C)/C=C/C(=O)O[C@H]2C[C@@]3(CC[C@H](C)[C@H](C[C@@H](C)O)O3)O[C@@H](CC1)[C@H]2C` [compound 4, oligomycin D]: in series [1], the “Emax” value is recorded as 0.72 ± 0.01. Also, the IC50 in series [1] amounted to 0.00349 ± 8e-05 µM; in series [2] (setting [5]) it was 12.9 ± 1 µM; in series [3] (setting [6]), 36 ± 2.3 µM. In series [2], the “FR (fold resistance, ratio IC50 SW620Ad300 / IC50 SW620)” value stood at 0.35.
